Experiments:
Experiment in all cases: radiometric filter-binding kinase assay, Kinase HotSpot
Details in all cases: compound 0.5 µM; ATP 10 µM
ACVR1B (human) = ACVR1B (human) (UniProt P36896)
AURKB (human) = AURKB (human) (UniProt Q96GD4)
CAMK1 (human) = CAMK1 (human) (UniProt Q14012)
CHEK1 (human) = CHEK1 (human) (UniProt O14757)
CLK2 (human) = CLK2 (human) (UniProt P49760)
DAPK2 (human) = DAPK2 (human) (UniProt Q9UIK4)
EPHA3 (human) = EPHA3 (human) (UniProt P29320)
EPHB3 (human) = EPHB3 (human) (UniProt P54753)
ERBB2 (human) = ERBB2 (human) (UniProt P04626)
FGFR1 (human) = FGFR1 (human) (UniProt P11362)
GSK3B (human) = GSK3B (human) (UniProt P49841)
IKBKE (human) = IKBKE (human) (UniProt Q14164)
IRAK1 (human) = IRAK1 (human) (UniProt P51617)
MAPK10 (human) = MAPK10 (human) (UniProt P53779)
MAPK11 (human) = MAPK11 (human) (UniProt Q15759)
MAPKAPK5 (human) = MAPKAPK5 (human) (UniProt Q8IW41)
MET (human) = MET (human) (UniProt P08581)
MINK1 (human) = MINK1 (human) (UniProt Q8N4C8)
MKNK2 (human) = MKNK2 (human) (UniProt Q9HBH9)
MLTK (human) = MLTK (human) (UniProt Q9NYL2)
MST4 (human) = MST4 (human) (UniProt Q9P289)
MYLK (human) = MYLK (human) (UniProt Q15746)
MYLK2 (human) = MYLK2 (human) (UniProt Q9H1R3)
NEK1 (human) = NEK1 (human) (UniProt Q96PY6)
NEK7 (human) = NEK7 (human) (UniProt Q8TDX7)
PAK4 (human) = PAK4 (human) (UniProt O96013)
PHKG2 (human) = PHKG2 (human) (UniProt P15735)
PLK1 (human) = PLK1 (human) (UniProt P53350)
PNCK (human) = PNCK (human) (UniProt Q6P2M8)
PRKCB1 (human) = PRKCB1 (human) (UniProt P05771)
PRKCI (human) = PRKCI (human) (UniProt P41743)
PRKD2 (human) = PRKD2 (human) (UniProt Q9BZL6)
RET (human) = RET (human) (UniProt P07949)
RPS6KA3 KD1 KD2 (human) = RPS6KA3 KD1 KD2 (human) (UniProt P51812)
RPS6KA6 KD1 KD2 (human) = RPS6KA6 KD1 KD2 (human) (UniProt Q9UK32)
RPS6KB1 (human) = RPS6KB1 (human) (UniProt P23443)
STK25 (human) = STK25 (human) (UniProt O00506)
STK3 (human) = STK3 (human) (UniProt Q13188)
TYRO3 (human) = TYRO3 (human) (UniProt Q06418)
YES1 (human) = YES1 (human) (UniProt P07947)

Chain of MAPK10 (human) (P53779 whole entry, looked up): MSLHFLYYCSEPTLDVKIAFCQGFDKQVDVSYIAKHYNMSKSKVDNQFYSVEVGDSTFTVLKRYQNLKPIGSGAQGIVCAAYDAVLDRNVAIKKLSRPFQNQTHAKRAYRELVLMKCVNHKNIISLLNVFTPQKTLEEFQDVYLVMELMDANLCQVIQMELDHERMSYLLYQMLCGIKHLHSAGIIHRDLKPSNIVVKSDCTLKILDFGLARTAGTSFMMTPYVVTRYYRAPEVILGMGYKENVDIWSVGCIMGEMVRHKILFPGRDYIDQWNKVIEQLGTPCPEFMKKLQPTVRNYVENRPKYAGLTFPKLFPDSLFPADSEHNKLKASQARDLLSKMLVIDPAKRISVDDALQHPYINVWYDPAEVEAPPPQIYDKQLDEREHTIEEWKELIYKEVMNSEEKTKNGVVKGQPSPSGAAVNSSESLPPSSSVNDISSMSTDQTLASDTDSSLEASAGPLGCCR
Chain of MYLK (human) (Q15746 whole entry, looked up): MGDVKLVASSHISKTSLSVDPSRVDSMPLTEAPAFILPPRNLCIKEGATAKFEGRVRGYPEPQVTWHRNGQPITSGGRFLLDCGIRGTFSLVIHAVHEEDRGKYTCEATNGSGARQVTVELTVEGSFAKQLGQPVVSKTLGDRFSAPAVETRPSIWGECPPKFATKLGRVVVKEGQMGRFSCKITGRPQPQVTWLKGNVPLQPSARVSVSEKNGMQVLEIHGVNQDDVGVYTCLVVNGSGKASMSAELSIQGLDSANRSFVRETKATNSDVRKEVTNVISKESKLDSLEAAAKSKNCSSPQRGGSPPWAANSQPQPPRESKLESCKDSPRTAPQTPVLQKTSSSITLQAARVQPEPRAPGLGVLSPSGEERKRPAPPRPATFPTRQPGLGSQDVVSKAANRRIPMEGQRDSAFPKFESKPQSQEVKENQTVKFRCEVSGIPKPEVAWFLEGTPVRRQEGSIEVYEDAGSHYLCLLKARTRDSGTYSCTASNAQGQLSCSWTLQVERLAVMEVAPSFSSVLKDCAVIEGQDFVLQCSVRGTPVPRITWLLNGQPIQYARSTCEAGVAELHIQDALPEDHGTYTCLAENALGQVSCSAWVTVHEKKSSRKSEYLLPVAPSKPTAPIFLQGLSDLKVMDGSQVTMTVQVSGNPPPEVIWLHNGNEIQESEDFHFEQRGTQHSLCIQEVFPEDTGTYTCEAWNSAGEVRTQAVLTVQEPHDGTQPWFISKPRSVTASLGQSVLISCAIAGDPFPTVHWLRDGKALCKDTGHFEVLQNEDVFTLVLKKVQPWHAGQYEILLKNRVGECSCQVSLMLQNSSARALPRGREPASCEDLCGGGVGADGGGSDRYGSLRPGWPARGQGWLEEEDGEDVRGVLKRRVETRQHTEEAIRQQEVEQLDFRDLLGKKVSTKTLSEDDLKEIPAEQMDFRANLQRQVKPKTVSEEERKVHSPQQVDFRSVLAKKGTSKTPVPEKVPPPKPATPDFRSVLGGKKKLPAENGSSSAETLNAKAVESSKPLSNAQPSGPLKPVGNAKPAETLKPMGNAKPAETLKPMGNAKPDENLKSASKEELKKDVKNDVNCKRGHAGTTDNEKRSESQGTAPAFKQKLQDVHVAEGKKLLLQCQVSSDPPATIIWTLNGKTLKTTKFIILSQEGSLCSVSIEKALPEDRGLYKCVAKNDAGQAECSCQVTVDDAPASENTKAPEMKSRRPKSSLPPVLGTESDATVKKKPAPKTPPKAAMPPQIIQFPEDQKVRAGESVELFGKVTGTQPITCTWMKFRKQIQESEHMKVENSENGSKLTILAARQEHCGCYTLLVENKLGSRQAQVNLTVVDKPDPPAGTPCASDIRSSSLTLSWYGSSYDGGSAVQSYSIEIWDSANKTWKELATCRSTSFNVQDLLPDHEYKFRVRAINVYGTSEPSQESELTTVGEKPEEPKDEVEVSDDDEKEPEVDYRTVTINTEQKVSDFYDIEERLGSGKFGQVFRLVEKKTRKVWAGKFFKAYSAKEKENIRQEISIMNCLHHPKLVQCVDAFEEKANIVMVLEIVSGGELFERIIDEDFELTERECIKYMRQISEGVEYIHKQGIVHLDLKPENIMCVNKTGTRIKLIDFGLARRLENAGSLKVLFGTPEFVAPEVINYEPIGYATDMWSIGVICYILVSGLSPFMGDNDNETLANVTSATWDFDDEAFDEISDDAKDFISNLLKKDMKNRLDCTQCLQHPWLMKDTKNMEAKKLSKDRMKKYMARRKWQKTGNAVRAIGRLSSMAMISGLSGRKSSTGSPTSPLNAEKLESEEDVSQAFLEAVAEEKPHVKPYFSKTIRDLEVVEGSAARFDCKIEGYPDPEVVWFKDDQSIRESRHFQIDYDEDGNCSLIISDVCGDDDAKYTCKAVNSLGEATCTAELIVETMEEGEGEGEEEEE
Chain of MLTK (human) (Q9NYL2 whole entry, looked up): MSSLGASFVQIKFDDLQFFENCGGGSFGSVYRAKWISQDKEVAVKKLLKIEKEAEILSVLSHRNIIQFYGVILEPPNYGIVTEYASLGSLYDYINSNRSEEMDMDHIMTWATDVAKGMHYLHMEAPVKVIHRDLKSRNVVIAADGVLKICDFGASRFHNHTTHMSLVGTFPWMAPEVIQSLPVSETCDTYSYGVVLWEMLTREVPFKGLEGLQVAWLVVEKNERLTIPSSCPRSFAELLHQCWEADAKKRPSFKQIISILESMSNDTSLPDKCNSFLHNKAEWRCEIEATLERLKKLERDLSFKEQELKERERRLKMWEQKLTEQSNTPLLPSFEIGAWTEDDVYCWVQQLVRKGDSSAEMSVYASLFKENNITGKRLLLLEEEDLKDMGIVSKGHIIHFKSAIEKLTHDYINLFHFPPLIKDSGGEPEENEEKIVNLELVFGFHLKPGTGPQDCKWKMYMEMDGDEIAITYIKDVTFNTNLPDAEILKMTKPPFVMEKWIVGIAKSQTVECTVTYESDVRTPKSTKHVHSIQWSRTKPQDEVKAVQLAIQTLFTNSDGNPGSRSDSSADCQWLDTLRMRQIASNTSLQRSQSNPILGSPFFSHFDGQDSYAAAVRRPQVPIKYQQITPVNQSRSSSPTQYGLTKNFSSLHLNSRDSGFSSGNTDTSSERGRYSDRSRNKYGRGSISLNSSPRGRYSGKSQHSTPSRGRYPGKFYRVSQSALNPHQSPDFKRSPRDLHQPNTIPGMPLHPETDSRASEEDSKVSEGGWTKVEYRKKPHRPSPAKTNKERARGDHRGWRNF
Chain of ERBB2 (human) (P04626 whole entry, looked up): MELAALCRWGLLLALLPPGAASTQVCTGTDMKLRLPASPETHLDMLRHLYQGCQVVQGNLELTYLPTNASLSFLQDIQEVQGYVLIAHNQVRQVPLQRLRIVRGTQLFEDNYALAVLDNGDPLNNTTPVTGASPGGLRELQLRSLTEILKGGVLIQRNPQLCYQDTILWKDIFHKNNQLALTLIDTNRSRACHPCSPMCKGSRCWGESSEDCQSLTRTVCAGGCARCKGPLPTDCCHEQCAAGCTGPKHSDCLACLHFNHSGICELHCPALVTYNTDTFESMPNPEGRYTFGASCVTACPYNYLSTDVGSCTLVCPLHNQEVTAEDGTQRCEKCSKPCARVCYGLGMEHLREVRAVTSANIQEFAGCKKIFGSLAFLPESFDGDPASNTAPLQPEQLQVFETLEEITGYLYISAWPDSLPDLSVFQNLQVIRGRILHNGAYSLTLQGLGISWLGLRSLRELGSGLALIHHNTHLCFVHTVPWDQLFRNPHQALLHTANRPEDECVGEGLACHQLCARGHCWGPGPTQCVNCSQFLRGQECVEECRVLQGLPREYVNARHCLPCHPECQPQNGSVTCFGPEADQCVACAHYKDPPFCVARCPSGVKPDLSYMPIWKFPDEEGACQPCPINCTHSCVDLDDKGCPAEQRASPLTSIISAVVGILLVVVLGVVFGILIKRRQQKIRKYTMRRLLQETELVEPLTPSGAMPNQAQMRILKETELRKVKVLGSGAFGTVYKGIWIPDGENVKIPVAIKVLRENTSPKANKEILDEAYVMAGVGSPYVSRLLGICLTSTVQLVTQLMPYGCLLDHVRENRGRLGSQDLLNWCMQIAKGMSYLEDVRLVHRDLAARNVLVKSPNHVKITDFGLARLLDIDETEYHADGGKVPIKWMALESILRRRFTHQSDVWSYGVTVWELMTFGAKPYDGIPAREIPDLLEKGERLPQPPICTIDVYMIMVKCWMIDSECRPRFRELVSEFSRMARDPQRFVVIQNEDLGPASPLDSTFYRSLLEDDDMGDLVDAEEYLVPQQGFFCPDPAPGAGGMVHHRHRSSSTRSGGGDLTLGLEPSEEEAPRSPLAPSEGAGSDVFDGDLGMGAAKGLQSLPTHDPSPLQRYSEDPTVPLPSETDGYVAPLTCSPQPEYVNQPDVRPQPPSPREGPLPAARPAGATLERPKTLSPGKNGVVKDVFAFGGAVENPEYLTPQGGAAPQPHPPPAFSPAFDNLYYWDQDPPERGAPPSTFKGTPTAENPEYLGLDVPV
Chain of PRKCI (human) (P41743 whole entry, looked up): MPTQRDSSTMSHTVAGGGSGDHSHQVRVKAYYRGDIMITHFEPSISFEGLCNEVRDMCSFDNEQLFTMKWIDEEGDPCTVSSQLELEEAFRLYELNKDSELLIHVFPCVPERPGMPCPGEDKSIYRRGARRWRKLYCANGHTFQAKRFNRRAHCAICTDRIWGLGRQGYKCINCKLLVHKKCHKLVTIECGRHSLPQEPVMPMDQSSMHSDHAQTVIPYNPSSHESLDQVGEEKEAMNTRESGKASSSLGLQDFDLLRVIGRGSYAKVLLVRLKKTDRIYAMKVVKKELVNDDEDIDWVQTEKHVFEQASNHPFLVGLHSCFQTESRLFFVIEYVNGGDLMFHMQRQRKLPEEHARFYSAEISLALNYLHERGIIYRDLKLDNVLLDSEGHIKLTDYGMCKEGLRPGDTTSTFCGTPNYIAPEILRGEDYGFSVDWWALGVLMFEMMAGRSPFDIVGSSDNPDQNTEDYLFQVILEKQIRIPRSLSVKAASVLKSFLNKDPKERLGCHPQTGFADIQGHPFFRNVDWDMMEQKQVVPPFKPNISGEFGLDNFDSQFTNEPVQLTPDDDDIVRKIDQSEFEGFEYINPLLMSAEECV

SMILES | residual activity (ACVR1B (human)) [%] | residual activity (AURKB (human)) [%] | residual activity (CAMK1 (human)) [%] | residual activity (CHEK1 (human)) [%] | residual activity (CLK2 (human)) [%] | residual activity (DAPK2 (human)) [%] | residual activity (EPHA3 (human)) [%] | residual activity (EPHB3 (human)) [%] | residual activity (ERBB2 (human)) [%] | residual activity (FGFR1 (human)) [%] | residual activity (GSK3B (human)) [%] | residual activity (IKBKE (human)) [%] | residual activity (IRAK1 (human)) [%] | residual activity (MAPK10 (human)) [%] | residual activity (MAPK11 (human)) [%] | residual activity (MAPKAPK5 (human)) [%] | residual activity (MET (human)) [%] | residual activity (MINK1 (human)) [%] | residual activity (MKNK2 (human)) [%] | residual activity (MLTK (human)) [%] | further results
CC[n+]1c(/C=C/N(C)c2ccccc2)n(-c2ccccc2)c2ccc(-c3nc4ccccc4s3)cc21 | 110 | 93.9 | 94.4 | 103 | 98.4 | 94.3 | 99.4 | 102 | 92 | 97.4 | 105 | 94.7 | 102 | 92.7 | 101 | 96.8 | 108 | 99 | 97.4 | 93.8 | residual activity (MST4 (human)): 93.7%; residual activity (MYLK (human)): 98.4%; residual activity (MYLK2 (human)): 95.8%; residual activity (NEK1 (human)): 102%; residual activity (NEK7 (human)): 95.4%; residual activity (PAK4 (human)): 109%; residual activity (PHKG2 (human)): 102%; residual activity (PLK1 (human)): 110%; residual activity (PNCK (human)): 114%; residual activity (PRKCB1 (human)): 102%; residual activity (PRKCI (human)): 90.1%; residual activity (PRKD2 (human)): 102%; residual activity (RET (human)): 95.6%; residual activity (RPS6KA3 KD1 KD2 (human)): 109%; residual activity (RPS6KA6 KD1 KD2 (human)): 96%; residual activity (RPS6KB1 (human)): 96.8%; residual activity (STK25 (human)): 96.5%; residual activity (STK3 (human)): 98.9%; residual activity (TYRO3 (human)): 103%; residual activity (YES1 (human)): 94.9%
CCN(CC)C(=O)c1ccc(Nc2nc(OCC3CCCCC3)c3nc[nH]c3n2)cc1 | 101 | 30.1 | 85.6 | 66.1 | 40.6 | 91.7 | 99.9 | 99.5 | 99.4 | 72.8 | 85 | 77.9 | 93.8 | 108 | 85.5 | 87.8 | 85.3 | 88.5 | 89.3 | 91.4 | residual activity (MST4 (human)): 84.9%; residual activity (MYLK (human)): 91.6%; residual activity (MYLK2 (human)): 94.7%; residual activity (NEK1 (human)): 53.1%; residual activity (NEK7 (human)): 103%; residual activity (PAK4 (human)): 51.5%; residual activity (PHKG2 (human)): 96.6%; residual activity (PLK1 (human)): 91.4%; residual activity (PNCK (human)): 117%; residual activity (PRKCB1 (human)): 103%; residual activity (PRKCI (human)): 97.2%; residual activity (PRKD2 (human)): 67%; residual activity (RET (human)): 7.65%; residual activity (RPS6KA3 KD1 KD2 (human)): 17.6%; residual activity (RPS6KA6 KD1 KD2 (human)): 46.2%; residual activity (RPS6KB1 (human)): 89.5%; residual activity (STK25 (human)): 85.2%; residual activity (STK3 (human)): 62.1%; residual activity (TYRO3 (human)): 90.4%; residual activity (YES1 (human)): 15.4%

— the kinase profiling compilation of Christmann-Franck et al. (2016)
